According to publication doi:10.1101/2020.02.18.954917v1 (biorxiv, 2020):

Columns and labels:
[1] = target: T1, Them1 StarD (Them1 START domain) (Homo sapiens, UniProt Q8WXI4); experiment: microscale thermophoresis, RED-tris-NTA labelled His-tagged StarD; assay type: binding
T1 sequence (Q8WXI4 339-594 isoform Q8WXI4-2): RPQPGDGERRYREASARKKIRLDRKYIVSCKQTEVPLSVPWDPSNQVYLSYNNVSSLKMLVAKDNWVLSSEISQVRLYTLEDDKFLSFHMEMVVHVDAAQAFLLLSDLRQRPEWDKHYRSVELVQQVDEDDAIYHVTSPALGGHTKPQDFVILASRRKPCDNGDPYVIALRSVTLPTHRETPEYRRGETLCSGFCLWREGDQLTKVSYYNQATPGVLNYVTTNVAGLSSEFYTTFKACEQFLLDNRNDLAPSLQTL

[2] = target: T1, Them1 StarD (Them1 START domain); experiment: differential scanning fluorimetry, SYPRO orange; assay type: binding; conditions: 10 μM protein, 50 μM ligand, 2% ethanol

Kd [1] [µM] | Tm decrease [2] | Compound
70.8 | – | CCCCCCCCCCCCCC(=O)O [myristic acid]
– | ~ 5 °C | CCCCCCCC/C=C\CCCCCCCC(=O)OC[C@@H](O)COP(=O)([O-])OCC[N+](C)(C)C [18:1 LPC]
9.5 | – | CCCCCCCCCCCCCCCCCC(=O)O [stearic acid]
45.9 | – | CCCCCCCCCCCCCCCC(=O)O [palmitic acid]
